According to patent US9243001B2, “Substituted benzene compounds” (Epizyme, Inc., priority 2013, dated 2016):

Target: T1, wild-type EZH2 (PRC2 enzyme) (Homo sapiens, UniProt Q15910)
T1 construct: made in house; host or cells: Spodoptera frugiperda (sf9) cells, baculovirus
Test: PRC2 enzyme assay on peptide substrates (wild-type EZH2)
Type: biochemical
Details: wild-type PRC2 enzyme 4 nM, H3K27me0 peptide substrate, 3H-SAM Flashplate; read-out: WT EZH2 IC50
Description: General Materials. S-adenosylmethionine (SAM), S-adenosylhomocyteine (SAH), bicine, KCl, Tween20, dimethylsulfoxide (DMSO) and bovine skin gelatin (BSG) were purchased from Sigma-Aldrich at the highest level of purity possible. Dithiothreitol (DTT) was purchased from EMD Millipore. ^3H-SAM was purchased from American Radiolabeled Chemicals with a specific activity of 80 Ci/mmol. 384-well streptavidin Flashplates were purchased from PerkinElmer.
Substrates. Peptides representative of human histone H3 residues 21- 44 containing either an unmodified lysine 27 (H3K27me0) or dimethylated lysine 27 (H3K27me2) are synthesized with a C-terminal G(K-biotin) linker-affinity tag motif and a C-terminal amide cap by 21st Century Biochemicals. The peptides are high-performance liquid chromatography (HPLC) purified to greater than 95% purity and confirmed by liquid chromatography mass spectrometry (LC-MS). The sequences are listed below.
Recombinant PRC2 Enzymes. Human PRC2 enzymes were purified as 4-component enzyme complexes co-expressed in Spodoptera frugiperda (sf9) cells using a baculovirus expression system. The subunits expressed were wild-type EZH2 (NM_004456) or EZH2 Y641F, N, H, S or C mutants generated from the wild-type EZH2 construct, EED (NM_003797), Suz12 (NM_015355) and RbAp48 (NM_005610). The EED subunit contained an N-terminal FLAG tag that was used to purify the entire 4-component complex from sf9 cell lysates. The purity of the complexes met or exceeded 95% as determined by SDS-PAGE and Agilent Bioanalyzer analysis. Concentrations of enzyme stock concentrations (generally 0.3-1.0 mg/mL) was determined using a Bradford assay against a bovine serum albumin (BSA) standard.
General Procedure for PRC2 Enzyme Assays on Peptide Substrates. The assays were all performed in a buffer consisting of 20 mM bicine (pH=7.6), 0.5 mM DTT, 0.005% BSG and 0.002% Tween20, prepared on the day of use. Compounds in 100% DMSO (1 μL) were spotted into polypropylene 384-well V-bottom plates (Greiner) using a Platemate 2×3 outfitted with a 384-channel pipet head (Thermo). DMSO (1 μL) was added to columns 11, 12, 23, 24, rows A -H for the maximum signal control, and SAH, a known product and inhibitor of PRC2 (1 μL) was added to columns 11,12, 23, 24, rows I -P for the minimum signal control. A cocktail (40 μL) containing the wild-type PRC2 enzyme and H3K27me0 peptide or any of the Y641 mutant enzymes and H3K27me2 peptide was added by Multidrop Combi (Thermo). The compounds were allowed to incubate with PRC2 for 30 min at 25° C., then a cocktail (10 μL) containing a mixture of non-radioactive and ^3H-SAM was added to initiate the reaction (final volume=51 μL). In all cases, the final concentrations were as follows: wild-type or mutant PRC2 enzyme was 4 nM, SAH in the minimum signal control wells was 1 mM and the DMSO concentration was 1%. The assays were stopped by the addition of non-radioactive SAM (10 μL) to a final concentration of 600 μM, which dilutes the ^3H-SAM to a level where its incorporation into the peptide substrate is no longer detectable. 50 μL of the reaction in the 384-well polypropylene plate was then transferred to a 384-well Flashplate and the biotinylated peptides were allowed to bind to the streptavidin surface for at least 1 h before being washed three times with 0.1% Tween20 in a Biotek ELx405 plate washer. The plates were then read in a PerkinElmer TopCount platereader to measure the quantity of ^3H-labeled peptide bound to the Flashplate surface, measured as disintegrations per minute (dpm) or alternatively, referred to as counts per minute (cpm).
Where dpm=disintegrations per minute, cmpd=signal in assay well, and min and max are the respective minimum and maximum signal controls.
Where top and bottom are the normally allowed to float, but may be fixed at 100 or 0 respectively in a 3-parameter fit. The Hill Coefficient normally allowed to float but may also be fixed at 1 in a 3-parameter fit. […]

T1 sequence (Q15910 1-751 isoform Q15910-2): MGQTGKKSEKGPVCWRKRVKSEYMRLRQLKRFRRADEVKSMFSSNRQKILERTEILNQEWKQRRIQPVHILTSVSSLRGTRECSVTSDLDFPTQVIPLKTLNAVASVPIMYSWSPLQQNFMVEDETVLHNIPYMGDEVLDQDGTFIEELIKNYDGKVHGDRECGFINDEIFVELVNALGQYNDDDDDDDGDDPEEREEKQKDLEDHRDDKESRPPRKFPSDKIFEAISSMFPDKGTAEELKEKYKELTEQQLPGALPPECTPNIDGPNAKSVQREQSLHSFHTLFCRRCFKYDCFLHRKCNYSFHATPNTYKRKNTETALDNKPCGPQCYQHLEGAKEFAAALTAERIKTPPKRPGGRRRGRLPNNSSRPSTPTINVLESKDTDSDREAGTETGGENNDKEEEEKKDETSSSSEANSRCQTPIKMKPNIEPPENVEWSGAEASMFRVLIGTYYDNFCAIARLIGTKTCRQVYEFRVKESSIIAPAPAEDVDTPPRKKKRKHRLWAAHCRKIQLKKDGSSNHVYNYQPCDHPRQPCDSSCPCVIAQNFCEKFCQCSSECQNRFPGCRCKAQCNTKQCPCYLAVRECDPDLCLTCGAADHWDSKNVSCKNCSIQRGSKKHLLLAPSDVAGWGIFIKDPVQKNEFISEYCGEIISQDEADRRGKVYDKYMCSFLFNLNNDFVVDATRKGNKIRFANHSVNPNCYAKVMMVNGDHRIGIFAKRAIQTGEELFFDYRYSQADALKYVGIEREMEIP
T1 sequence (O75530 whole entry partner): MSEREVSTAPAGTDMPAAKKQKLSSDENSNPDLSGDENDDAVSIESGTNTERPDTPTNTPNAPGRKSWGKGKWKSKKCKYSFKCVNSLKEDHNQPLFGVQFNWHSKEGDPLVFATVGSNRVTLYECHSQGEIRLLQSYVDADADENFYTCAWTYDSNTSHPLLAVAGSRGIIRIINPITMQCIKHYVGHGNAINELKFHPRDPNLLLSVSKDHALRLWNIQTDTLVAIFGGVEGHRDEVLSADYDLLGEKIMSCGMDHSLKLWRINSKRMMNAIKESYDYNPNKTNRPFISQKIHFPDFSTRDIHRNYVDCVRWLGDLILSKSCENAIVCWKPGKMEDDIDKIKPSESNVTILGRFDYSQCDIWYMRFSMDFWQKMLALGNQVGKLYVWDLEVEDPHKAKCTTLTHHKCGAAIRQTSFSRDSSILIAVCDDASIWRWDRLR
T1 sequence (Q15022 whole entry partner): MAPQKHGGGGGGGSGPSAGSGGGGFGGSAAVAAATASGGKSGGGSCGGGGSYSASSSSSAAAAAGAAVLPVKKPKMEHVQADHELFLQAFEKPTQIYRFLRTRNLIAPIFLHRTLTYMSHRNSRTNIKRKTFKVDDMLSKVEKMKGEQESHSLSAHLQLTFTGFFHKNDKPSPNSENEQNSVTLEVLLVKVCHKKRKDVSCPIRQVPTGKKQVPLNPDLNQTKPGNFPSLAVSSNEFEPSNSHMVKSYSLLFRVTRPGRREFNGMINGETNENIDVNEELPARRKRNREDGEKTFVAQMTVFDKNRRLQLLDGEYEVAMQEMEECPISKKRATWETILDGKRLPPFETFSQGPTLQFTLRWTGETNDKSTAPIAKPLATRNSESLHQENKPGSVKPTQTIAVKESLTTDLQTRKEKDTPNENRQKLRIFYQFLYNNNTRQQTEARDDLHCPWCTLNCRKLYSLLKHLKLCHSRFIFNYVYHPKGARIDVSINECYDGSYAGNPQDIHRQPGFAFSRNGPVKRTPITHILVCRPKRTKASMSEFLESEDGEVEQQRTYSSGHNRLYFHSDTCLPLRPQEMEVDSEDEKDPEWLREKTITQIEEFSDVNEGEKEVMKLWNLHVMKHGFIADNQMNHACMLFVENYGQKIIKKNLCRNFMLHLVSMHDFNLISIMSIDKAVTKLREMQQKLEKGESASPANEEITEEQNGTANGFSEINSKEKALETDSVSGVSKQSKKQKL
T1 sequence (Q09028 whole entry partner): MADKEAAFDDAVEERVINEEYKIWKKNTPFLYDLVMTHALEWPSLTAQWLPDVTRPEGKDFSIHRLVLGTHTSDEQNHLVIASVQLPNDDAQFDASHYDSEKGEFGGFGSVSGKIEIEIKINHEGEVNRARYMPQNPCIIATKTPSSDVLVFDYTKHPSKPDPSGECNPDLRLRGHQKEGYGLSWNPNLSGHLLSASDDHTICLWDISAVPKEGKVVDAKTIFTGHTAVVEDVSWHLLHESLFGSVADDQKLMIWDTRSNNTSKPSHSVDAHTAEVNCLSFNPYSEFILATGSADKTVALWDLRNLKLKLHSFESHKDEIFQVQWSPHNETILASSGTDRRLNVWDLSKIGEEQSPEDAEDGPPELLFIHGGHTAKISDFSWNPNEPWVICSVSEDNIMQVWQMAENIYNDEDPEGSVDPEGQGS

| IC50 [µM] | SMILES |
| --- | --- |
| 2.18 | CCN(c1cc(Cl)cc(C(=O)NCc2cccn3ccnc23)c1C)[C@H]1CC[C@H](N(C)C)CC1 [Compound 3, 5-chloro-3-(((trans)-4-(dimethylamino)cyclohexyl)(ethyl)amino)-N-(imidazo[1,2-a]pyridin-8-ylmethyl)-2-methylbenzamide] |
| > 10 | CCN(c1cc(Cl)cc(C(=O)NCc2nc3ccccc3[nH]2)c1C)[C@H]1CC[C@H](N(C)C)CC1 [Compound 19, N-((1H-benzo[d]imidazol-2-yl)methyl)-5-chloro-3-(((1r,4r)-4-(dimethylamino)cyclohexyl)(ethyl)amino)-2-methylbenzamide] |
| > 10 | CCN(c1cc(Cl)cc(C(=O)NCc2cccc3ccnn23)c1C)[C@H]1CC[C@H](N(C)C)CC1 [Compound 7, 5-chloro-3-(((trans)-4-(dimethylamino)cyclohexyl)(ethyl)amino)-2-methyl-N-(pyrazolo[1,5-a]pyridin-7-ylmethyl)benzamide] |
| 0.433 | CCN(c1cc(Cl)cc(C(=O)NCc2c(C)cc(C)n3ccnc23)c1C)[C@H]1CC[C@H](N(C)C)CC1 [Compound 1, 5-chloro-3-(((trans)-4-(dimethylamino)cyclohexyl)(ethyl)amino)-N-((5,7-dimethylimidazo[1,2-a]pyridin-8-yl)methyl)-2-methylbenzamide] |
| 1.38 | CCN(c1cc(Cl)cc(C(=O)NCc2c(C)ccn3ccnc23)c1C)[C@H]1CC[C@H](N(C)C)CC1 [Compound 2, 5-chloro-3-(((trans)-4-(dimethylamino)cyclohexyl)(ethyl)amino)-2-methyl-N-((7-methylimidazo[1,2-a]pyridin-8-yl)methyl)benzamide] |
| > 50 | CCN(c1cc(Cl)cc(C(=O)NCc2nccs2)c1C)C1CCOCC1 [Compound 24, 5-chloro-3-(ethyl(tetrahydro-2H-pyran-4-yl)amino)-2-methyl-N-(thiazol-2-ylmethyl)benzamide] |
| > 10 | CCN(c1cc(Cl)cc(C(=O)NCc2c(C)ccc3cn(C)nc23)c1C)[C@H]1CC[C@H](N(C)C)CC1 [Compound 5, 5-chloro-N-((2,6-dimethyl-2H-indazol-7-yl)methyl)-3-(((trans)-4-(dimethylamino)cyclohexyl)(ethyl)amino)-2-methylbenzamide] |
| > 50 | CCN(c1cc(Cl)cc(C(=O)NCc2cncn2C)c1C)C1CCOCC1 [Compound 22, 5-chloro-3-(ethyl(tetrahydro-2H-pyran-4-yl)amino)-2-methyl-N-((1-methyl-1H-imidazol-5-yl)methyl)benzamide] |
| 5.13 | CCN(c1cc(Cl)cc(C(=O)NCc2ccc(C)c3cn(C)nc23)c1C)C1CCC(N(C)C)CC1 (stereo not drawn) [Compound 4, 5-chloro-N-((2,4-dimethyl-2H-indazol-7-yl)methyl)-3-(((1s,4s)-4-(dimethylamino)cyclohexyl)(ethyl)amino)-2-methylbenzamide] |
| 1.65 | CCN(c1cc(Cl)cc(C(=O)NCCc2nccn2Cc2ccccc2)c1C)[C@H]1CC[C@H](N(C)C)CC1 [Compound 9, N-(2-(1-benzyl-1H-imidazol-2-yl)ethyl)-5-chloro-3-(((trans)-4-(dimethylamino)cyclohexyl)(ethyl)amino)-2-methylbenzamide] |

More lines, now with the values behind:

| SMILES | IC50 [µM] |
| --- | --- |
| CCN(c1cc(Cl)cc(C(=O)NCc2cnn(C)c2C)c1C)C1CCOCC1 [Compound 27, 5-chloro-N-((1,5-dimethyl-1H-pyrazol-4-yl)methyl)-3-(ethyl(tetrahydro-2H-pyran-4-yl)amino)-2-methylbenzamide] | > 50 |
| CCN(c1cc(Cl)cc(C(=O)NCCc2nc3ccccc3o2)c1C)[C@H]1CC[C@H](N(C)C)CC1 [Compound 14, N-(2-(benzo[d]oxazol-2-yl)ethyl)-5-chloro-3-(((trans)-4-(dimethylamino)cyclohexyl)(ethyl)amino)-2-methylbenzamide] | 6.55 |
| CCN(c1cc(Cl)cc(C(=O)NCc2ccn(C)n2)c1C)C1CCOCC1 [Compound 28, 5-chloro-3-(ethyl(tetrahydro-2H-pyran-4-yl)amino)-2-methyl-N-((1-methyl-1H-pyrazol-3-yl)methyl)benzamide] | 14.8 |
| CCN(c1cc(Cl)cc(C(=O)NCc2nccn2C(C)C)c1C)[C@H]1CC[C@H](N(C)C)CC1 [Compound 18, 5-chloro-3-(((trans)-4-(dimethylamino)cyclohexyl)(ethyl)amino)-N-((1-isopropyl-1H-imidazol-2-yl)methyl)-2-methylbenzamide] | > 10 |
| CCN(c1cc(Cl)cc(C(=O)NCc2cccc3cn(C)nc23)c1C)[C@H]1CC[C@H](N(C)C)CC1 [Compound 6, 5-chloro-3-(((trans)-4-(dimethylamino)cyclohexyl)(ethyl)amino)-2-methyl-N-((2-methyl-2H-indazol-7-yl)methyl)benzamide] | > 10 |
| CCN(c1cc(Cl)cc(C(=O)NCc2ncc(C)[nH]2)c1C)[C@H]1CC[C@H](N(C)C)CC1 [Compound 20, 5-chloro-3-(((trans)-4-(dimethylamino)cyclohexyl)(ethyl)amino)-2-methyl-N-((5-methyl-1H-imidazol-2-yl)methyl)benzamide] | > 10 |
| CCN(c1cc(Cl)cc(C(=O)NCc2cn3ccsc3n2)c1C)C1CCOCC1 [Compound 26, 5-chloro-3-(ethyl(tetrahydro-2H-pyran-4-yl)amino)-N-(imidazo[2,1-b]thiazol-6-ylmethyl)-2-methylbenzamide] | > 50 |
| CCN(c1cc(Cl)cc(C(=O)NCc2nccn2Cc2ccccc2)c1C)[C@H]1CC[C@H](N(C)C)CC1 [Compound 17, N-((1-benzyl-1H-imidazol-2-yl)methyl)-5-chloro-3-(((1r,4r)-4-(dimethylamino)cyclohexyl)(ethyl)amino)-2-methylbenzamide] | 2.99 |
| CCN(c1cc(Cl)cc(C(=O)NCCc2nccs2)c1C)[C@H]1CC[C@H](N(C)C)CC1 [Compound 12, 5-chloro-3-(((trans)-4-(dimethylamino)cyclohexyl)(ethyl)amino)-2-methyl-N-(2-(thiazol-2-yl)ethyl)benzamide] | > 50 |
| CCN(c1cc(Cl)cc(C(=O)NCCc2nc3ccccc3n2C)c1C)[C@H]1CC[C@H](N(C)C)CC1 [Compound 11, 5-chloro-3-(((trans)-4-(dimethylamino)cyclohexyl)(ethyl)amino)-2-methyl-N-(2-(1-methyl-1H-benzo[d]imidazol-2-yl)ethyl)benzamide] | > 50 |
| CCN(c1cc(Cl)cc(C(=O)NCCc2nccn2C)c1C)[C@H]1CC[C@H](N(C)C)CC1 [Compound 8, 5-chloro-3-(((trans)-4-(dimethylamino)cyclohexyl)(ethyl)amino)-2-methyl-N-(2-(1-methyl-1H-imidazol-2-yl)ethyl)benzamide] | 12.2 |
| CCN(c1cc(Cl)cc(C(=O)NCc2ncc[nH]2)c1C)[C@H]1CC[C@H](N(C)C)CC1 [Compound 15, N-((1H-imidazol-2-yl)methyl)-5-chloro-3-(((trans)-4-(dimethylamino)cyclohexyl)(ethyl)amino)-2-methylbenzamide] | > 10 |
| CCN(c1cc(Cl)cc(C(=O)NCc2c[nH]cn2)c1C)C1CCOCC1 [Compound 30, N-((1H-imidazol-4-yl)methyl)-5-chloro-3-(ethyl(tetrahydro-2H-pyran-4-yl)amino)-2-methylbenzamide] | 0.32 |
| CCN(c1cc(Cl)cc(C(=O)NCc2cn(C)cn2)c1C)C1CCOCC1 [Compound 25, 5-chloro-3-(ethyl(tetrahydro-2H-pyran-4-yl)amino)-2-methyl-N-((1-methyl-1H-imidazol-4-yl)methyl)benzamide] | 7.82 |
